The values below come from PMC8453848, “Effect of GLPG1205, a GPR84 Modulator, on CYP2C9, CYP2C19, and CYP1A2 Enzymes: In Vitro and Phase 1 Studies” (Clinical Pharmacology in Drug Development, 2021).

In data set [1] the target is CYP2C19 (Homo sapiens, UniProt P33261). Put plainly: Phase 1 drug-drug interaction study: PK of omeprazole and 5-hydroxyomeprazole with placebo or GLPG1205. The conditions noted are these: for tmax: median (min‐max); for AUC: male, plasma, oral, arithmetic mean (CV%). Here is the method:
Prior to injection into the analytical system, isolation of omeprazole, its metabolite and the deuterated IS (omeprazole –d3) from 200 µL of human Li-heparin plasma was performed by solid phase extraction performed on Oasis HBL 60mg 3cc cartridges (Waters, Zellik, Belgium). The elution from the cartridges was done with 1 mL of methanol and then the eluate was evaporated to dryness under a stream of nitrogen at approximatively +35°C. The residue was reconstituted with 0.2 mL of mobile phase and then centrifuged at about 3500 rpm for 5 minutes at +5°C. 120 µL of the clear supernatant was transferred into injection vials. […] Chromatographic separation was performed on a Zorbax XBD-C8 column (Agilent, Eindhoven, The Netherlands) (50 x 4.6 mm, 3.5 µm from Interchim) by using a Nexera HLPC system (Shimadzu, Kyoto, Japan) in isocratic elution mode.

For data set [2], the target named is CYP2C9 (Homo sapiens, UniProt P11712). The conditions noted are these: for AUC0‐inf: arithmetic mean (CV%); for tmax: median (min‐max).
Method: (§1) This was a phase 1 single‐center, randomized, double‐blind, placebo‐controlled crossover drug‐drug interaction study (ClinicalTrials.gov number NCT02623296).
(§2) Subjects received treatment in 1 of 2 sequences (AB or BA, n = 7 in each sequence). In treatment A, oral doses of GLPG1205 100 mg once a day were administered from day 1 to day 12. On day 13, GLPG1205 100 mg (capsule form) was coadministered with the CYP450 substrates following an overnight fast. In treatment B, oral doses of placebo (capsule form) once a day were administered from day 1 to day 12. On day 13 placebo was coadministered with the CYP450 substrates following an overnight fast. Dose administration on day 13 was followed by a 4‐hour fast. The 2 treatment sequences were separated by a washout period of at least 28 days.
(§3) Pharmacokinetic assessments included analysis of GLPG1205, and the CYP450 substrates and their metabolites in plasma. In each treatment period, blood samples were collected by venipuncture in the arm predose on days 7, 9, 10, and 13 and on day 13 at 1, 2, 4, 6, 8, 12, 24 (day 14), 48 (day 15), 96 (day 17), and 144 (day 19) hours postdose for PK analysis. For treatment period 2, an additional blood sample was also taken at 168 hours (day 20; follow‐up visit) postdose. Samples collected on days 7, 9, and 10 were for GLPG1205 analysis only. Blood samples of 2 mL were collected for the determination of GLPG1205 in plasma, and of 9 mL for the determination of CYP450 substrates and their metabolites. After collection, blood samples were immediately chilled using an ice bath. Within 30 minutes of collection, samples were separated by centrifugation at 1500 g for 10 minutes at 4°C. For GLPG1205, ≥250 μL of plasma was transferred into 2.0‐mL polypropylene tubes and stored at –20°C or below immediately after centrifugation at the clinical center until shipment to analysis centers. For CYP450 substrates, 500 μL of plasma was transferred to 2.0‐mL polypropylene tubes. […] All samples were shipped on dry ice to analysis centers. Repetitive freeze‐thaw cycles were avoided to maintain the integrity of samples. Plasma concentrations were measured using LC‐MS/MS; further details can be found in the Supplemental Methods. Pharmacokinetic calculations were performed by SGS LSS using Phoenix WinNonLin 6.2 or higher (Pharsight Corporation, Palo Alto, California). […] Values below the quantification limit were imputed by 0 for the calculation of descriptive statistics except for geometric mean and geometric coefficient of variation (CV), for which it was imputed by half the lower limit of quantification.
(§4) An analysis of variance (ANOVA) with treatment, treatment period, and sequence as fixed effects and subject as a random effect was performed on natural log‐transformed PK parameters (R, Cmax, AUC0‐inf, AUC0‐t, and t1/2,λz) of CYP450 substrates and their metabolites on day 13. The treatment effect for tmax was assessed using the nonparametric Wilcoxon's signed rank test. Point estimates were calculated as the geometric mean of the individual ratios for each parameter for treatment A (GLPG1205 + CYP450 substrates) relative to treatment B (placebo + CYP450 substrates) and expressed as fold difference.
Data set [3] addresses T1, CYP1A2 (Homo sapiens, UniProt P05177).
T1 sequence (P05177 1-516): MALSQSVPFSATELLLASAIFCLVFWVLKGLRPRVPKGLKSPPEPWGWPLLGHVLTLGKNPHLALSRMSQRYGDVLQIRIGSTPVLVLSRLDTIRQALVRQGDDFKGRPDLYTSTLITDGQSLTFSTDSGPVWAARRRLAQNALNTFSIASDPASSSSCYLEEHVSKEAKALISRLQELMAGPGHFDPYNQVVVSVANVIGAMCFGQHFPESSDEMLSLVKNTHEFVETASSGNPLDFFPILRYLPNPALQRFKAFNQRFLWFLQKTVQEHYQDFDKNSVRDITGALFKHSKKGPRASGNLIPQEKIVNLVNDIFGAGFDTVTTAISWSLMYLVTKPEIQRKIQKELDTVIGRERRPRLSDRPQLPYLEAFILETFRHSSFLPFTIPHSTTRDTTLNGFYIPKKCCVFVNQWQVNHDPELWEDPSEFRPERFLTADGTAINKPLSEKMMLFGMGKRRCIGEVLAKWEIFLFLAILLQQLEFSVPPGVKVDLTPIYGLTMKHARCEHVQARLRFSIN
As to the kind of experiment: clinical. Particulars: male, plasma, oral; for half-life: t1/2, λz.
Method: as §1, §2, §3, §4

The target in data set [4] is T1, CYP1A2. The conditions noted are these: for tmax: median (min‐max); for R_AUC0‐t (metabolite‐over‐parent ratio): geometric mean (geometric CV%).
Method: as §1, §2, §3, §4
Where [5] appears, read: GLPG1205 100 mg once a day + warfarin.
Setting [6] is: AUC0‐t, GLPG1205 100 mg once a day + caffeine, arithmetic mean (CV%).
[7] abbreviates: AUC0‐t, Placebo + caffeine, arithmetic mean (CV%).
The mark [8] stands for this setting: GLPG1205 100 mg once a day + caffeine 100 mg day 13, n = 14, arithmetic mean (CV%).
Where [9] appears, read: Placebo + caffeine 100 mg day 13, n = 14, arithmetic mean (CV%).
[10] abbreviates: GLPG1205 relative to placebo (ANOVA).
The mark [11] stands for this setting: GLPG1205 100 mg once a day + caffeine.

Where two headings read alike, the source gives them in different places.

Sequence of CYP2C19 (P33261 whole entry): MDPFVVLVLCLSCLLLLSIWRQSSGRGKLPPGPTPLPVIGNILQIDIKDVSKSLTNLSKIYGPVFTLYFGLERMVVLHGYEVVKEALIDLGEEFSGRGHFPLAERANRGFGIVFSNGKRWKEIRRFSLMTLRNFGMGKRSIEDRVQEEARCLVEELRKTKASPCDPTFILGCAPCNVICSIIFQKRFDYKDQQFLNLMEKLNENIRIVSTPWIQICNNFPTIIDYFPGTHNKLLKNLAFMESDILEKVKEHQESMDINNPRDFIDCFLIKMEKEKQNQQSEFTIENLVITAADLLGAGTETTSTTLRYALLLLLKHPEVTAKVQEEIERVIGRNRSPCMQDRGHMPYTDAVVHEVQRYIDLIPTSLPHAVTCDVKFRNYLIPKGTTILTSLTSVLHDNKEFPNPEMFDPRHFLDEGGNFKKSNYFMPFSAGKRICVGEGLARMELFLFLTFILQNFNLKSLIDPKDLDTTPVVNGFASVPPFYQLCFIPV
Sequence of CYP2C9 (P11712 whole entry): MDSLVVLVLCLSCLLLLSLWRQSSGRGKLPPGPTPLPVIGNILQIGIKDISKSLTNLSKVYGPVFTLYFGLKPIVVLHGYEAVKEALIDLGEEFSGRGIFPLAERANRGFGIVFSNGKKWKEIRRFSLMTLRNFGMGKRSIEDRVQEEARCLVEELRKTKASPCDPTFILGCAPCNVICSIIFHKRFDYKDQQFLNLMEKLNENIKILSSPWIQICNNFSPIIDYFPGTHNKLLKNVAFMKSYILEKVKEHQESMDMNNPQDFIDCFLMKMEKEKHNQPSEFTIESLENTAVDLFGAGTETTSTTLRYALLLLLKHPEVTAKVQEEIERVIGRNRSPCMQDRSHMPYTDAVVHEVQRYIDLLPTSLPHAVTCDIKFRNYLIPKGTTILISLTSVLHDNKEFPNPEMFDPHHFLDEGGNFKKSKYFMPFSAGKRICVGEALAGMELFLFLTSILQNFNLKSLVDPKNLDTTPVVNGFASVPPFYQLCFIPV

On to `COc1ccc2nc([S+]([O-])Cc3ncc(CO)c(OC)c3C)[nH]c2c1` (centres unmarked) [5‐Hydroxyomeprazole, 5‐hydroxyomeprazole], for which, in data set [1] (human, in vivo), the “AUC0‐inf, PE (90% CI) of least‐squares geometric means ratio” value is given as 1.08 (0.98‐1.20) and the “AUC0‐t, PE (90% CI) of least‐squares geometric means ratio” value is on record as 1.08 (0.96‐1.21). Also, in data set [1] (in vivo), the “R_AUC0‐inf, PE (90% CI) of least‐squares geometric means ratio” value is on record as 0.83 (0.77‐0.89) and the “R_AUC0‐t, PE (90% CI) of least‐squares geometric means ratio” value is 0.84 (0.79‐0.89).

Consider `CC(=O)C[C@@H](c1ccccc1)c1c(O)c2ccc(O)cc2oc1=O` [(S)‐7‐Hydroxywarfarin, (S)‐7‐hydroxywarfarin], for which the “AUC0‐t, PE (90% CI) of least‐squares geometric means ratio” value in data set [2] (human, in vivo) was 1.15 (1.00‐1.32). In data set [2] (in vivo), the “R_AUC0‐t, PE (90% CI) of least‐squares geometric means ratio” value was 1.01 (0.87‐1.19).

In the case of `CC(=O)C[C@@H](c1ccccc1)c1c(O)c2ccccc2oc1=O` [(S)‐Warfarin, (S)‐warfarin], the Cmax is recorded as 0.481 (19.8) μg/mL in data set [2] (GLPG1205 100 mg once a day + warfarin 10 mg day 13, n = 14, arithmetic mean (CV%)) and 0.453 (21.3) μg/mL in data set [2] (Placebo + warfarin 10 mg day 13, n = 14, arithmetic mean (CV%)). The “AUC0‐inf” value was 17.5 (24.9) μg·h/mL in data set [2] (setting [5]) and 15.1 (21.1) μg·h/mL in data set [2] (Placebo + warfarin). Moreover, the tmax in data set [2] (setting [5]) and in data set [2] (Placebo + warfarin) was 2.0 (0.5‐4.0) h each time.

By AUC is commonly meant the area under the concentration-time curve, a measure of exposure. A word on the half-life: it is the time in which the quantity being followed falls by half. With `Cn1c(=O)c2c(ncn2C)n(C)c1=O` [Caffeine, caffeine], the AUC in data set [3] (AUC0‐inf, GLPG1205 100 mg once a day + caffeine, arithmetic mean (CV%)) worked out at 17400 ng·h/mL; in data set [3] (AUC0‐inf, Placebo + caffeine, n = 12, arithmetic mean (CV%)), 18700 ng·h/mL; in data set [3] (setting [6]) it was 15700 ng·h/mL; in data set [3] (setting [7]) it was 16300 ng·h/mL. The Cmax is 2160 ng/mL in data set [3] (setting [8]) and 2150 ng/mL in data set [3] (setting [9]). Moreover, the half-life in data set [3] (GLPG1205 100 mg once a day + caffeine, arithmetic mean (CV%)) is 294 min; in data set [3] (Placebo + caffeine, n = 13, arithmetic mean (CV%)) it was 344 min. For the same compound, the tmax in data set [4] (Placebo + caffeine) is given as 1.0 (0.3‐3.0) h.

For the compound `COc1ccc2[nH]c([S+]([O-])Cc3ncc(C)c(OC)c3C)nc2c1` (centres unmarked) [Omeprazole, omeprazole, reference compound], the values for the tmax in data set [1] (GLPG1205 100 mg once a day + omeprazole) and in data set [1] (Placebo + omeprazole) were 2.0 (1.0‐5.0) h and 3.0 (2.0‐5.0) h, respectively. The “AUC0‐inf, PE (90% CI) of least‐squares geometric means ratio” value in data set [1] (setting [10]) is listed as 1.36 (1.18‐1.58). In data set [1] (setting [10]), the “AUC0‐t, PE (90% CI) of least‐squares geometric means ratio” value is on record as 1.28 (1.10‐1.49). Moreover, the “Cmax, PE (90% CI) of least‐squares geometric means ratio” value in data set [1] (setting [10]) is 1.30 (1.03‐1.65). In addition, the “t1/2, λz, PE (90% CI) of least‐squares geometric means ratio” value in data set [1] (setting [10]) is reported as 1.09 (0.97‐1.22). In addition, the AUC in data set [1] (human, 20 mg, AUC0‐inf, Placebo + omeprazole) came out at 520 ng·h/mL; in data set [1] (human, 20 mg, AUC0‐t, Placebo + omeprazole), 486 ng·h/mL; in data set [1] (human, AUC0‐inf, GLPG1205 100 mg once a day + omeprazole), 548 ng·h/mL; in data set [1] (human, AUC0‐t, GLPG1205 100 mg once a day + omeprazole), 563 ng·h/mL.

In the case of `Cn1c(=O)[nH]c2ncn(C)c2c1=O` [Paraxanthine, paraxanthine], the AUC in data set [3] (setting [6]) came out at 8600 ng·h/mL. Moreover, the AUC in data set [3] (setting [7]) turned out to be 8430 ng·h/mL. Moreover, in data set [3] (setting [8]), the Cmax is 634 ng/mL. Also, the Cmax in data set [3] (setting [9]) came out at 577 ng/mL. Further, in data set [4] (setting [11]), the “R_AUC0‐t (metabolite‐over‐parent ratio)” value is given as 0.538 (27.7) and the tmax is 7.0 (0.3‐12.0) h. In addition, in data set [4] (setting [10]), the “AUC0‐t, PE (90% CI) of least‐squares geometric means ratio” value was 0.96 (0.79‐1.16); the “Cmax, PE (90% CI) of least‐squares geometric means ratio” value is reported as 1.08 (0.97‐1.21); the “R_AUC0‐t, PE (90% CI) of least‐squares geometric means ratio” value was 1.00 (0.87‐1.15). In addition, the “R_AUC0‐t (metabolite‐over‐parent ratio)” value in data set [4] (Placebo + caffeine) is recorded as 0.539 (30.5).
